Measured values as given in patent US12134785B2, “Differentiation of pluripotent stem cells to form renal organoids” (The University of Queensland, priority 2014, dated 2024).

Experiments:
[1] = test system: IM cells; assay: Preliminary data on differentiation of IM cells at different RA / AGN193109 concentrations; type: cell-based; conditions: higher concentrations of AGN193109
[2] = test system: human iPSC line CRL1502 (clone#C32); assay: RA signaling control of A-P fate patterning of the IM (RA or AGN193109 with FGF9, monolayer differentiation, immunofluorescence); type: cell-based; conditions: day 18
Protocol: (§1) All experiments presented used the previously described wildtype human iPSC line CRL1502 (clone#C32) generated using episomal reprogramming^28. Undifferentiated human iPSCs were maintained on the mouse embryonic fibroblasts (MEFs) (Millipore) as a feeder layer with human ES cell (hES) medium as described previously^1. Cells were authenticated and tested for the mycoplasma infection^28. Human iPSCs were plated on a Matrigel-coated (Millipore) culture dish and cultured in MEF-conditioned hES medium (MEF-CM) until reaching to 60-100% confluent. Then, cells were again plated on a Matrigel-coated at 5,000 cells/cm^2 in MEF-CM. Next day, cells reached to 40-50% of confluent, cells were treated with 8 μM of CHIR99021 in APEL basal medium ([…] Technologies) supplemented with Antibiotic-Antimycotic (Life Technologies) for 2-5 days, followed by FGF9 (200 ng mL^−1) and Heparin (1 μg mL^−1) for another […], with changing medium every second day. At day 7, cells were collected and dissociated into single cells using Trypsin or TrypLE select (Life Technologies). Cells (0.5×10^6) were spun down at ×400 g for 2 min to form a pellet and then transferred onto a Transwell 0.4 μm pore polyester membrane (#CLS3450 Corning). Pellets were treated with 5 μM of CHIR99021 in APEL for 1 h, and then cultured with FGF9 (200 ng mL^−1) and Heparin (1 μg mL^−1) for 5 days, followed by another 6-13 days in APEL basal medium, with changing medium three times a week. Culture medium should not exceed above a membrane. For the differentiation in monolayer cultures, cells post CHIR99021 induction were treated by FGF9 (200 ng mL^−1) and Heparin (1 μg mL^−1) for 10 days, followed by APEL basal medium for another 6 days. In some experiments, RA (0.1 μM) or AGN193109 (5 μM) were added to FGF9 medium. A step-by step protocol describing kidney organoid generation was provided in Example 1.
For monolayer cells, antibody staining was performed as described previously^1. For the kidney organoid, organoids were fixed with 2% paraformaldehyde in PBS for 20 min at 4° C. followed by 3 times wash with PBS. […]

[3] = test system: human iPSC line CRL1502 (clone#C32); assay: Duration of initial Wnt signaling (CHIR99021) prior to FGF9: AI/PI markers by qPCR and immunofluorescence; type: cell-based
Protocol: as §1
For monolayer cells, antibody staining was performed as described previously^1. For the kidney organoid, organoids were fixed with 2% paraformaldehyde in PBS for 20 min at 4° C. followed by 3 times wash with PBS. Then organoids were blocked with 10% donkey serum, 0.3% Triton X/PBS for 2-3 h at room temperature and incubated with primary antibodies overnight at 4° C. After 5 times washing with 0.1% Triton X/PBS. secondary antibodies were incubated for 4 h at room temperature. The following antibodies and dilutions were used: rabbit anti-PAX2 (1:300, #71-6,000, Zymed Laboratories), goat anti-SIX1 (1:300, #sc-9709, Santa Cruz Biotechnology), rabbit anti-SIX2 (1:300, #11562-1-AP, Proteintech), mouse anti-ECAD (1:300, #610181. BD Biosciences), rabbit anti-WT1 (1:100, #sc-192, Santa Cruz Biotechnology), mouse anti-HOXD11 (1:300, #SAB1403944, Sigma-Aldrich), goat anti-GATA3 (1:300, AF2605, R&D Systems). rabbit anti-JAG1 (1:300, #ab7771, Abcam), goat anti-Cubilin (1:150, #sc-20607. Santa Cruz Biotechnology), sheep anti-NPHS1 (1:300, AF4269, R&D Systems), LTL-biotin-conjugated (1:300, B-1325, Vector Laboratories), DBA-biotin-conjugated (1:300, B-1035, Vector Laboratories), mouse anti-KRT8 (1:300, #TROMA, DSHB), mouse anti-CD31 (1:300, #555444, BD Pharmingen), rabbit anti-KDR (1:300, #2479, Cell Signaling Technology), goat anti-SOX17 (1:300, #AF1924, R&D Systems), rabbit anti-NG2 (1:300, #AB5320, Merck Millipore), rabbit anti-SMA (1:300, #ab15267. Abcam), mouse anti-PDGFRA (1:200, #556001. BD Pharmingen), rabbit anti-Laminin (1:300, #L9393, Sigma-Aldrich), rabbit anti-UMOD (1:300, #BT-590, Biomedical Technologies), mouse anti-MEIS1 (1:300, #ATM39795, activemotif), goat anti-FOXD1 (1:200, #sc-47585, Santa Cruz Biotechnology) and rabbit anti-cleaved-CASP3 (1:300, #9661, Cell Signaling Technology). Images were taken using a Nikon Ti-U microscope or a Zeiss LSM 780 confocal microscope. All immunofluorescence analyses were successfully repeated more than three times and representative images are shown. […]

[4] = test system: kidney organoids; assay: Regulation of nephrogenesis in the kidney organoid (CHIR99021 pulse, FGF9); type: cell-based, human
Protocol: as §1, with “Pellets were treated with 5 μM of CHIR99021 in APEL for 1 h, and then cultured with FGF9 (200 ng mL^−1) and Heparin (1 μg mL^−1) for 5 days, followed by another 6-13 days in APEL basal medium, with changing medium three times a week.” left out

[5] = longer duration of CHIR99021, day 7
[6] = shorter duration of CHIR99021, day 7

Row | SMILES | proportion of metanephric mesenchyme cells [1] | AI specification of early migrating cells ([2]; 3 days CHIR99021 followed by FGF9 + AGN) | induction of the MM lineage ([2]; AGN193109 (5 μM) with FGF9 after CHIR99021, monolayer) | UE induction (GATA3+PAX2+ECAD+) ([2]; RA (0.1 μM) or AGN193109 (5 μM) with FGF9 after CHIR99021, monolayer) | UE induction (GATA3+PAX2+ECAD+) ([3]; fewer days in CHIR, after 18 days of culture) | induction of UE and MM in monolayer culture ([3]; initial 4 days of CHIR99021) | expression of the PSM markers TBX6 and T (qPCR) ([3]; longer days in CHIR99021) | induction of MM (PAX2+ECAD−) and its derivatives (PAX2+ECAD+) ([3]; longer days in CHIR, after 18 days of culture) | PI markers HOXD11 and EYA1 (qPCR) ([3]; longer days of 8 μM CHIR99021, day 7) | AI (GATA3) by immunofluorescence [3, 5] | PI (HOXD11) by immunofluorescence [3, 5] | AI (GATA3) by immunofluorescence [3, 6] | PI (HOXD11) by immunofluorescence [3, 6] | AI markers LHX1 and GATA3 (qPCR) ([3]; shorter period of 8 μM CHIR99021, day 7) | nephrogenesis in organoids ([4]; 5 μM CHIR99021 for 1 h immediately post aggregation vs no pulse) | formation of aggregates ([4]; 45 minute pulse of high CHIR (5 μM) immediately upon reaggregation) | maximal nephron number per organoid ([4]; pulse of CHIR99021 for one hour after forming a pellet)
1 | Cc1ccc(C2=CCC(C)(C)c3ccc(C#Cc4ccc(C(=O)O)cc4)cc32)cc1 [AGN193109] | relative increase | inhibited | enhanced | inhibited | – | – | – | – | – | – | – | – | – | – | – | – | –
2 | Cc1c[nH]c(-c2cnc(NCCNc3ccc(C#N)cn3)nc2-c2ccc(Cl)cc2Cl)n1 [CHIR99021] | – | – | – | – | dominant UE induction | induction of both the UE and MM | Prolonged expression | preferential induction of MM | increased | less | more | more | less | induced | promoted nephrogenesis | enhanced | required
